assay: Waters ACQUITY UPLC BEH C18, 100 × 2.1 mm, 1.7 µm, 40 °C, 0.3 to 0.4 mL/min, estimated dead time 0.63 min; A: water + 0.1% formic acid; B: methanol + 0.1% formic acid; gradient (min/%B) 0/0.5 0.1/0.5 10/80 10.1/99.5 12/99.5; conditions: stereoisomer not certain

CSCC(NC(=O)CCC(N)C(=O)O)C(=O)O (stereo not drawn) and CCC(C)C(N)C(=O)NC(CCC(N)=O)C(=O)O (stereo not drawn) are within 1.5-fold of each other in LC retention time: 2.02 min for the first, 1.82 min for the second.

COc1cc(C2OCC3C(c4cc(OC)c(OC5OC(CO)C(O)C(O)C5O)c(OC)c4)OCC23)cc(OC)c1OC1OC(CO)C(O)C(O)C1O (stereo not drawn) and O=c1c(OC2OC(CO)C(O)C(O)C2O)c(-c2cc(O)c(O)c(OC3OC(CO)C(O)C(O)C3O)c2)oc2cc(O)cc(O)c12 (stereo not drawn) are within 1.5-fold of each other in LC retention time: 3.61 min for the first, 3.34 min for the second.

CC(=O)N1CC(C)CCC12OC1CC3C4CC=C5CC(O)CCC5(C)C4CCC3(C)C1C2C (stereo not drawn) and CC1CCC2C(C)C3C(CC4C5CC=C6CC(OC7OC(CO)C(O)C(O)C7OC7OC(C)C(O)C(O)C7O)CCC6(C)C5CCC43C)N2C1 (stereo not drawn) are within 1.5-fold of each other in LC retention time: 7.36 min for the first, 4.94 min for the second.

Going from CC(=O)Oc1ccc(C=Cc2cc(OC(C)=O)cc(OC(C)=O)c2)cc1 to O=C(C=Cc1ccc(O)c(O)c1)OC1CC2(O)CC(OC2=O)C1OC(=O)C=Cc1ccc(O)c(O)c1 (stereo not drawn), the LC retention time falls from 8.46 min to 4.54 min (1.9-fold).

CCC=CCC=CC=CC(CCCCCCCC(=O)O)OO (stereo not drawn) and CCCCCCCCNC(O)CCc1ccc(O)c(OC)c1 (stereo not drawn) are within 1.5-fold of each other in LC retention time: 6.77 min for the first, 5.25 min for the second.

Compared with CC1CCC2(OC1)OC1C(O)C3C4CCC5CC(OC6OC(CO)C(OC7OC(CO)C(O)C(OC8OCC(O)C(O)C8O)C7OC7OC(CO)C(O)C(OC8OC(CO)C(O)C(O)C8O)C7O)C(O)C6O)C(O)CC5(C)C4CCC3(C)C1C2C (stereo not drawn), CC(=O)OC1CC(COC2OC(CO)C(O)C(O)C2O)CNC12OC1CC3C4CCC5CC(OC6OC(CO)C(OC7OC(CO)C(OC8OCC(O)C(O)C8O)C(O)C7OC7OC(CO)C(O)C(O)C7O)C(O)C6O)CCC5(C)C4CCC3(C)C1C2C (stereo not drawn) is 1.9-fold lower in LC retention time: 6.99 min for the first, 3.59 min for the second.

First: CCOC(=O)Oc1c(OC)cc(C(=O)OC2CC3CN4CCc5c([nH]c6cc(OC)ccc56)C4CC3C(C(=O)OC)C2OC)cc1OC (stereo not drawn)
Second: CCC1CN2CCC3(O)C(=Nc4cccc(OC)c43)C2CC1C(=COC)C(=O)OC (stereo not drawn)
The LC retention time of the first is 1.6-fold higher: 6.72 min for the first, 4.26 min for the second.

O=c1c(O)c(-c2ccc(O)c(O)c2)oc2c(OC3OC(CO)C(O)C(O)C3O)c(O)cc(O)c12 (stereo not drawn) and O=c1c(OC2OC(CO)C(O)C(O)C2O)c(-c2ccc(O)c(O)c2)oc2cc(O)cc(O)c12 (stereo not drawn) are within 1.5-fold of each other in LC retention time: 4.64 min for the first, 4.03 min for the second.

CSCCCCCCCN=C=S and CCCCCC(=O)OC1C(CO)OC(OC2(CO)OC(CO)C(OC(C)=O)C2O)C(OC(=O)CCCCC)C1OC(=O)CCCCC (stereo not drawn) are within 1.5-fold of each other in LC retention time: 9.19 min for the first, 9.97 min for the second.

O=C(O)CC(=O)OCC1OC(Oc2c(-c3ccc(O)c(O)c3)oc3cc(O)cc(O)c3c2=O)C(O)C(O)C1O (stereo not drawn) and CC1OC(OCC2OC(Oc3c(-c4ccc(O)c(O)c4)oc4cc(OC5OC(CO)C(O)C(O)C5O)cc(O)c4c3=O)C(O)C(O)C2O)C(O)C(O)C1O (stereo not drawn) are within 1.5-fold of each other in LC retention time: 4.22 min for the first, 3.39 min for the second.

CCC1C(=O)OCC1Cc1cncn1C (stereo not drawn) and Nc1ncnc2c1ncn2C1OC(CO)C(O)C1O (stereo not drawn) are within 1.5-fold of each other in LC retention time: 2.4 min for the first, 1.88 min for the second.

OCC1OC(Oc2cc3c(OC4OC(CO)C(O)C(O)C4O)cc(O)cc3[o+]c2-c2ccc(O)cc2)C(O)C(O)C1O (stereo not drawn) and OCC1OC(Oc2cc3c(O)cc(O)cc3[o+]c2-c2cc(O)c(O)c(O)c2)C(OC2OCC(O)C(O)C2O)C(O)C1O (stereo not drawn) are within 1.5-fold of each other in LC retention time: 2.71 min for the first, 2.65 min for the second.

CC(C)C(N)C(=O)NC(Cc1ccccc1)C(=O)O (stereo not drawn) and NC(=O)CCC(NC(=O)CCCc1ccccc1)C(=O)O (stereo not drawn) are within 1.5-fold of each other in LC retention time: 3.23 min for the first, 2.88 min for the second.

O=c1c(-c2ccc(O)c(O)c2)coc2cc(O)ccc12 and COc1ccc(-c2cc(=O)c3c(O)cc(OC4OC(C(=O)O)C(O)C(O)C4O)cc3o2)cc1O (stereo not drawn) are within 1.5-fold of each other in LC retention time: 4.63 min for the first, 4.6 min for the second.

First: C=CC1C(OC2OC(CO)C(O)C(O)C2O)OC=C(C(=O)OC)C1CC1NCCc2c1[nH]c1ccccc21 (stereo not drawn)
Second: O=S(=O)(O)ON=C(CC(O)c1ccccc1)SC1OC(CO)C(O)C(O)C1O (stereo not drawn)
The LC retention time of the first is 1.6-fold higher: 4.36 min for the first, 2.71 min for the second.

Compared with Oc1ccc(C=Cc2cc(O)cc3c2C(c2cc(O)cc(O)c2)C(c2ccc(O)cc2)O3)cc1 (stereo not drawn), NCCCCNC(=O)C=Cc1ccc(O)cc1 is 2.2-fold lower in LC retention time: 5.81 min for the first, 2.67 min for the second.

CC1OC(OC2C(OC3C(OC4CCC5(C)C(CCC6(C)C5CC=C5C7CC(C)(C)CC(=O)C7(C)CCC56C)C4(C)CO)OC(C(=O)O)C(O)C3O)OCC(O)C2O)C(O)C(O)C1O (stereo not drawn) and CCC(C)=CCCC(C)(OC1OC(COC2OCC(O)C(O)C2O)C(O)C(O)C1O)C1CCC2(C)C3CCC4C(C)(C)C(OC5OC(CO)C(O)C(O)C5OC5OC(CO)C(O)C(O)C5O)CCC4(C)C3CC(O)C12 (stereo not drawn) are within 1.5-fold of each other in LC retention time: 7.85 min for the first, 6.19 min for the second.

COc1ccc(C2CC(=O)c3c(O)cc(OC4OC(COC5OC(C)C(O)C(O)C5O)C(O)C(O)C4O)cc3O2)cc1O (stereo not drawn) and CC1CCC2(NC1)OC1CC3C4CCC5CC(OC6OC(CO)C(OC7OC(CO)C(O)C(OC8OC(O)C(O)C(O)C8O)C7OCC(O)C(O)C(O)C(O)CO)C(O)C6O)CCC5(C)C4CCC3(C)C1C2C (stereo not drawn) are within 1.5-fold of each other in LC retention time: 4.51 min for the first, 4.32 min for the second.

First: O=c1[nH]c(=O)c2[nH]cnc2[nH]1
Second: CCC(C)C(NC(=O)C(N)C(C)C)C(=O)O (stereo not drawn)
The LC retention time of the first is 1.6-fold lower: 1.75 min for the first, 2.88 min for the second.

Source: the RepoRT retention time repository
